The values that follow come from patent US6703229B2, “Aryl propenal double bond reductase” (Washington State University Research Foundation, priority 2000, dated 2004).

The target in one data set is reverse transcriptase (Human immunodeficiency virus type 1 group M subtype B, UniProt P04585). The settings on record: cited from earlier work.
The test system of a further data set is cAMP-phosphodiesterase. The settings on record: cited from earlier work.
For data set [1], the system named is aryl propenal double bond reductase (SEQ ID NO:2). As to the kind of experiment: Enzyme assay of recombinant aryl propenal double bond reductase (HPLC of products). The following applies: for reduction of the aryl propenal substrate by the recombinant reductase: recombinant enzyme expressed from SEQ ID NO:1, in the presence of [4R]-NADPH. The data set is classed as biochemical, Pinus taeda. Here is the method:
Enzyme assays—Each non-radioactive assay (250 μl) consisted of buffer (50 mM Tris-HCl, pH 8.0), substrate (12.5 mM in DMSO, 10 μl), NADPH (25 mM in H2O, 10 μl), and the enzyme preparation (30 μl containing 5 mM DTT). Controls were performed using either denatured enzyme (boiled 96° C., 10 min) or in absence of enzyme. After 1 hour incubation at 30° C. with shaking, the reaction mixture was extracted with EtOAc (500 μl×2) with the EtOAc solubles combined and evaporated to dryness in vacuo. The EtOAc solubles were dissolved in CH3CN (10 μl) and then in 3% AcOH (90 μl), and subjected to reverse-phase HPLC with UV detection (280 nm).
Radioactive assays were performed in the same way as the non-radioactive assay with the following exceptions: the reaction was initiated by addition of [4S-^3H] or [4R-^3H]NADPH (25 mM in H2O, 666.7 kBq 10 μl). The EtOAc solubles were reconstituted in CH3CN/H2O and subjected to reverse-phase HPLC as described above with 0.5 ml fractions collected and an aliquot (100 μl) of each removed for scintillation counting to determine the level of incorporation of ^3H into the products.
Reversed phase HPLC separation of substrates and products—Separation of dehydrodiconiferyl alcohol (DDC), dihydrodehydrodiconiferyl alcohol (DDDC), dehydrodiconiferyl aldehyde (DDCA), dihydrodehydrodiconiferyl aldehyde (DDDCA) coniferyl alcohol (CA), dihydroconiferyl alcohol (DCA), coniferyl aldehyde (CAL), and dihydroconiferyl aldehyde (DCAL) was carried out using a reverse-phase column (Symmetry Shield RP8, 3.9×150 mm, Waters) as follows: CH3CN-3% AcOH in H2O (1:9) from 0 to 5 min, then linear gradient to 1:3 between 5 to 30 min, and finally linear gradient to 100% CH3CN over 25 min, at a flow rate of 1 ml/min.

On to `COc1cc(C[C@H]2C(=O)OC[C@@H]2Cc2ccc(OC)c(OC)c2)ccc1O` [(−)-arctigenin], for which the “effectiveness against HIV (reverse transcriptase inhibitory activity)” value at reverse transcriptase is “effective against HIV”.
Turning to `COc1cc(C[C@H]2COC(=O)[C@@H]2Cc2ccc(O)c(OC)c2)ccc1O` [matairesinol], in the data set on cAMP-phosphodiesterase, the “inhibition of cAMP-phosphodiesterase” value is “inhibit cAMP-phosphodiesterase”.
In the case of `COc1cc(/C=C/C=O)ccc1O` [coniferyl aldehyde], the “reduction of the aryl propenal substrate by the recombinant reductase” value in data set [1] is “capable of reducing coniferyl aldehyde to dihydroconiferyl aldehyde”.
For the molecule (−)-trachelogenin, the “effectiveness against HIV (reverse transcriptase inhibitory activity)” value at reverse transcriptase is given as “effective against HIV”.
In the case of `CC(Cc1ccc(O)c(O)c1)C(C)Cc1ccc(O)c(O)c1` (stereo not shown) [nordihydroguaiaretic acid], the “effectiveness against HIV (reverse transcriptase inhibitory activity)” value at reverse transcriptase is on record as “effective against HIV”.
`COc1cc([C@@H]2Oc3c(OC)cc(/C=C/C=O)cc3[C@H]2CO)ccc1O` [dehydrodiconiferyl aldehyde]: the “reduction of the aryl propenal substrate by the recombinant reductase” value in data set [1] is reported as “regiospecifically reduce the double-bond”.

B1: aryl propenal double bond reductase (SEQ ID NO:2): Pinus taeda aryl propenal double bond reductase encoded by cDNA SEQ ID NO:1, expressed in E. coli (protein)
chain: MEQRVPNRELILVAYANEGPVTDSHLNIRETKLDLGSVGKDGSSGDVAVQNLWISVDPYLRQLMKESDDGLYLPSFPLNQAIRSILVGKVVASANPAFEVGDIVSGFYQVSEYAIVPRGDLMKIDTSVVKPSDYLGLLGMPALTAWAGFIIVGEPKPGDEVFVSAAAGSVGMLVGQLAKIKSCRVVGSAGSDQKVKLLKEFGFDDAFNYKCETDLDAALSRYFPRGIDIYFDNVGGRMLEAVLNHINMKARIPLCGMISQYNQEWKQRFGVRNLLNLVGKCAKMEGFMSGQYHHRMGEFFEEMTGYIKQGKIKYKEDVKVGLDSFLEAFNSMFTGENIGKPVIYLGPPLPK
Turning to B1, the “enzymatic activity of the expressed reductase” value in data set [1] (expressed in E. coli, GST fusion removed) was “enzymatically active”.
